Measured values as given in the OPERA property sets (Mansouri et al. 2018).

`CCS(=O)c1ccc([N+](=O)[O-])cc1C#N` (stereo not drawn) showed a logP of 2.15. In the case of `Cc1csc(S(C)=O)c1[N+](=O)[O-]` (stereo not drawn), the logP is reported as 2.19. Work on `CCS(=O)c1ccc(C(=O)c2ccccc2)cc1[N+](=O)[O-]` (stereo not drawn) yielded a logP of 3.82. Work on `CS(=O)c1scc(-c2ccccc2)c1[N+](=O)[O-]` (stereo not drawn) yielded a logP of 3.2. In the case of `CCS(=O)c1cnc2ccccc2n1` (stereo not drawn), the logP is reported as 2.29. With `CCCS(=O)c1sc(C#N)c(Cl)c1C#N` (stereo not drawn) the logP was 2.95. For `CCS(=O)c1ccc(C(C)=O)s1` (stereo not drawn), the logP was 1.31. `CCOC(=O)c1cc(C#N)c(S(C)=O)s1` (stereo not drawn) gave a logP of 2.27. Compound `CS(=O)c1sccc1[N+](=O)[O-]` (stereo not drawn) has a logP of 1.69. `CC(C)CS(=O)c1sccc1[N+](=O)[O-]` (stereo not drawn) gave a logP of 2.93. In the case of `CCC(=O)c1ccc(S(=O)CC)c([N+](=O)[O-])c1` (stereo not drawn), the logP is reported as 2.8. Work on `CC(=O)c1sc(S(C)=O)c(-c2ccc(Cl)cc2)c1N` (stereo not drawn) yielded a logP of 3.18. Work on `Cc1c(C#N)sc(S(C)=O)c1-c1ccc(Cl)cc1` (stereo not drawn) yielded a logP of 3.8. `CS(=O)c1ccc([N+](=O)[O-])s1` (stereo not drawn) gave a logP of 1.4. Work on `CCS(=O)c1sc(C#N)c(OC)c1C#N` (stereo not drawn) yielded a logP of 2.35. In the case of `CCS(=O)c1sccc1[N+](=O)[O-]` (stereo not drawn), the logP is reported as 2.06. For `CCS(=O)c1c(Cl)cncc1Cl` (stereo not drawn), the logP was 2.1. `CC(=O)c1sc(S(C)=O)c(-c2ccc(Cl)cc2)c1C` (stereo not drawn) gave a logP of 3.82. Compound `CCS(=O)c1nc(C)c([N+](=O)[O-])c(C)c1C#N` (stereo not drawn) has a logP of 2.44. `CCCS(=O)c1sc(C#N)cc1C#N` (stereo not drawn) showed a logP of 2.18. `CCS(=O)c1sc(Cl)cc1C#N` (stereo not drawn) gave a logP of 2.31. `CCS(=O)c1sc(C(C)=O)c(N)c1C#N` (stereo not drawn) gave a logP of 1.82. Compound `CCS(=O)c1nc(C)cc(C)c1C#N` (stereo not drawn) has a logP of 1.77. For `Cc1sc(S(C)=O)c([N+](=O)[O-])c1C` (stereo not drawn), the logP was 2.65. Compound `CCCS(=O)c1sccc1[N+](=O)[O-]` (stereo not drawn) has a logP of 2.52. `CCS(=O)c1ccc(Cl)cc1S(C)(=O)=O` (stereo not drawn) gave a logP of 2.31. `Cc1c(C#N)sc(S(C)=O)c1-c1ccccc1` (stereo not drawn) showed a logP of 3.36. In the case of `CC(=O)c1sc(S(C)=O)c(-c2ccccc2)c1C` (stereo not drawn), the logP is reported as 3.26. `CCS(=O)c1sc(C#N)cc1C#N` (stereo not drawn) showed a logP of 1.78. In the case of `CCCCS(=O)c1sc(C#N)c(Cl)c1C#N` (stereo not drawn), the logP is reported as 3.44. Compound `CCS(=O)c1sc(C(C)=O)c(Cl)c1C#N` (stereo not drawn) has a logP of 2.64. In the case of `CCS(=O)c1ccc([N+](=O)[O-])cn1` (stereo not drawn), the logP is reported as 1.74. For `CCCCCC1(c2ccc(S(=O)CC)c([N+](=O)[O-])c2)OCCO1` (stereo not drawn), the logP was 5.11. `CS(=O)c1sc(C#N)cc1C#N` (stereo not drawn) gave a logP of 1.31. `CS(=O)c1sccc1C#N` (stereo not drawn) gave a logP of 0.96. For `CS(=O)c1ccsc1` (stereo not drawn), the logP was 0.91. In the case of `CCS(=O)c1sc(C#N)c(C)c1C(C)=O` (stereo not drawn), the logP is reported as 2.22. `CC(=O)c1sc(S(C)=O)c(C#N)c1-c1ccc(Cl)cc1` (stereo not drawn) gave a logP of 3.31. In the case of `CCS(=O)c1ccc2ccccc2n1` (stereo not drawn), the logP is reported as 2.43. Compound `CS(=O)c1sccc1Br` (stereo not drawn) has a logP of 1.71. For `COc1c(C#N)sc(S(C)=O)c1C#N` (stereo not drawn), the logP was 2.02. Work on `CS(=O)c1cccs1` (stereo not drawn) yielded a logP of 0.91. With `CCS(=O)c1sc(C(C)=O)c(C)c1C#N` (stereo not drawn) the logP was 2.22. Compound `CS(=O)c1nc(-c2ccccc2)cc(C(F)(F)F)n1` (stereo not drawn) has a logP of 3.01. Compound `CCS(=O)c1sc(C(C)=O)c(C)c1[N+](=O)[O-]` (stereo not drawn) has a logP of 2.81. `CCCCS(=O)c1sc(C#N)cc1C#N` (stereo not drawn) gave a logP of 2.64. Compound `CCCCCC(=O)c1ccc(S(=O)CC)c([N+](=O)[O-])c1` (stereo not drawn) has a logP of 4.36. In the case of `CS(=O)c1sc(C#N)c(Cl)c1C#N` (stereo not drawn), the logP is reported as 2.15.
